# Data published in patent publication US20230227838A1, “ENHANCED CELL SURVIVAL AGAINST BIOTIC AND ABIOTIC STRESSES THROUGH SALICYLICK ACID-INDUCED NPR1 CONDENSATES” (priority 2020, published 2023).
# Key:
# [1] = system: EDS1; test: Interaction with EDS1 (co-IP in planta, pull-down in E. coli); assay type: binding, Arabidopsis thaliana; conditions: in planta (1 mM SA 5 hr) and in E. coli
# From the text: Plasmid construction and E. coli-based ubiquitination: The coding sequences for all Arabidopsis genes were amplified from cDNA. Point mutations of AtNPR1 (AT1G64280) were generated using the QuikChange II site-directed mutagenesis kit (Agilent). Overlap PCR was used to generate the deletion/truncation mutations of AtCUL3A (AT1G26830) and AtNPR1. The WT and mutated coding sequences for all genes and gene fusions were sub-cloned into the pDONR207 gateway donor vector and confirmed by sequencing. The obtained entry vectors were recombined into either plant or E. coli destination vectors without or with an N- or C-terminal tag. For in planta expression, genes were recombined into the plant binary vectors pK7FWG2, pSITE-4NB and pLN462 to generate C-terminal eGFP, mCherry and HA fusions, respectively; into pK7WGF2, pEG201, pEG202, pEG203 and pEG204 to generate N-terminal eGFP, HA, FLAG, Myc and V5 fusions, respectively. […] For bimolecular fluorescence complementation (BiFC), entry vectors carrying the coding sequences of genes and their mutant variants were recombined into the pSITE-cEYFP-N1 binary vector for C-terminal fusion with the cYFP half (YC), or into the pSITE-nEYFP-C1 for N-terminal fusion with the nYFP half (YN). […]
# [2] = molecular target: T1, NPR1-GFP (Arabidopsis thaliana, UniProt P93002); test: Localization of NPR1-GFP and sim3-GFP, transient expression in Arabidopsis seedlings; assay type: cell-based; conditions: for nuclear-cytoplasmic partitioning of NPR1-GFP: 2 hr
# T1 construct: expressed in transfected cells; host or cells: Arabidopsis Col-0 seedlings, Agrobacterium-mediated transient expression
# T1 sequence (P93002 1-593): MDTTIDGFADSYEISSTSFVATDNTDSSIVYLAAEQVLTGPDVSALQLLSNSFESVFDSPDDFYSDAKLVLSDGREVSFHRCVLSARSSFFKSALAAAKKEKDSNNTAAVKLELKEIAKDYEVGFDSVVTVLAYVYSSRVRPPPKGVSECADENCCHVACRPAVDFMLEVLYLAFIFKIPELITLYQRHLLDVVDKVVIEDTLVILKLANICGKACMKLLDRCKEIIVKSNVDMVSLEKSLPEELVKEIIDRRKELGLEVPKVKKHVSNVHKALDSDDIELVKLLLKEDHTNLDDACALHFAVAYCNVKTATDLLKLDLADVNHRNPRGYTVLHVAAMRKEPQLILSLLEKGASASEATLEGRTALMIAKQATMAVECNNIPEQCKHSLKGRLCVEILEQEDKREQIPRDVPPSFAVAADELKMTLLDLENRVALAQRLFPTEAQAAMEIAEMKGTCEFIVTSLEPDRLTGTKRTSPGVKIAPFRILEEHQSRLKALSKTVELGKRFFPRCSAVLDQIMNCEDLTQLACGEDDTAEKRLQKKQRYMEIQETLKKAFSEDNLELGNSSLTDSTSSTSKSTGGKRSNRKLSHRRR
Molecule,interaction with EDS1 [1],nuclear-cytoplasmic partitioning of NPR1-GFP ([2]; 1 mM SA),nuclear-cytoplasmic partitioning of NPR1-GFP ([2]; 5 mM SA),formation of NPR1-GFP bodies in nucleus and cytoplasm ([2]; SA treatment 2 hr),subcellular localization ([2]; after SA treatment),"cytoplasmic body formation ([2]; lower SA concentration (1 mM), Arabidopsis seedlings)"
"NPR1: wild-type Arabidopsis thaliana NPR1 protein, positive regulator of systemic acquired resistance",direct interaction,,,,,
"O=C(O)c1ccccc1O [SA, salicylic acid]",,predominant nuclear accumulation of NPR1-GFP,fluorescence was detected also in the cytoplasm,induced formation of discrete NPR1-GFP bodies,,
"sim3: SUMOylation-deficient mutant of NPR1 (protein, left off: small tags and cut ends, SUMOylation-deficient mutant of NPR1) MDTTIDGFADSYEISSTSFVATDNTDSSIVYLAAEQVLTGPDVSALQLLSNSFESVFDSPDDFYSDAKLVLSDGREVSFHRCVLSARSSFFKSALAAAKKEKDSNNTAAVKLELKEIAKDYEVGFDSVVTVLAYVYSSRVRPPPKGVSECADENCCHVACRPAVDFMLEVLYLAFIFKIPELITLYQRHLLDVVDKVVIEDTLVILKLANICGKACMKLLDRCKEIIVKSNVDMVSLEKSLPEELVKEIIDRRKELGLEVPKVKKHVSNVHKALDSDDIELVKLLLKEDHTNLDDACALHFAVAYCNVKTATDLLKLDLADVNHRNPRGYTVLHVAAMRKEPQLAASALEKGASASEATLEGRTALMIAKQATMAVECNNIPEQCKHSLKGRLCVEILEQEDKREQIPRDVPPSFAVAADELKMTLLDLENRVALAQRLFPTEAQAAMEIAEMKGTCEFIVTSLEPDRLTGTKRTSPGVKIAPFRILEEHQSRLKALSKTVELGKRFFPRCSAVLDQIMNCEDLTQLACGEDDTAEKRLQKKQRYMEIQETLKKAFSEDNLELGNSSLTDSTSSTSKSTGGKRSNRKLSHRRR",could interact,,,,predominant cytoplasmic localization,cytoplasmic bodies were also observed at the lower SA concentration
